The values below come from article PMC4956231, “Molecular Mechanisms for Drug Hypersensitivity Induced by the Malaria Parasite’s Chloroquine Resistance Transporter” (PLoS Pathogens, 2016).

Where “and” joins values, the source holds several entries; their conditions need not be identical. Equal values may be shown once.

Test [1] concerns C4^Dd2. As to the kind of experiment: P. falciparum drug susceptibility (parasite proliferation, SYBR Safe). It counts as cell-based. Particulars: Plasmodium falciparum, Control, 72 h. The procedure:
(§1) Parasite proliferation was measured in 96-well plates using a fluorescent DNA-intercalating dye and a protocol described in detail previously. Briefly, cell suspensions containing erythrocytes infected with ring-stage parasites (hematocrit and parasitemia of approximately 2% and 1%, respectively) were incubated at 37°C for 72 h. The samples were frozen, thawed, and then processed by the addition of 100 μL (per well) of SYBR Safe DNA Gel Stain (Molecular Probes; 0.2 μL/mL) in a lysis buffer (20 mM Tris, 5 mM EDTA, 0.008% w/v saponin, and 0.08% v/v Triton X-100; pH 7.5). The fluorescence emanating from each well was measured immediately using a Tecan Infinite M1000 PRO microplate reader (excitation 490 nm; emission 520 nm) and the average fluorescence from wells containing the highest concentration of the drug was subtracted from the resulting values. The level of parasite proliferation in the presence of each drug concentration was expressed as a percentage of the proliferation measured in the absence of the drug for which the IC50 was being determined. The IC50s were determined in SigmaPlot by a least-squares fit of the equation y = a/ [1 ([drug]/IC50)c] to the data, where y is the percent parasite proliferation, a is the maximum change in the percent parasite proliferation, and c is a fitted constant. In all cases, five independent experiments were performed (on different days), and within each experiment measurements were averaged from three replicates.

For test [2], the system named is C2^GC03. The description is as above. The format is cell-based. Particulars: Plasmodium falciparum, Control, 72 h. The protocol:
as §1

In test [3] the test system is Dd2. The test is described as above. The format is cell-based. As to conditions: Plasmodium falciparum, DD2, 72 h. The procedure: as §1
The test system of test [4] is 3D7. Described as above. The format is cell-based. As to conditions: Plasmodium falciparum, Control, 72 h. The procedure: as §1
The subject of test [5] is C6^7G8. The description is as above. The format is cell-based. As to conditions: Plasmodium falciparum, Control, 72 h. The procedure:
as §1

Test [6] concerns noninjected oocytes. Briefly: [3H]drug uptake into noninjected oocytes (background accumulation). The format is cell-based, Xenopus laevis. Particulars: for rate of CQ uptake: [3H]CQ […]. The procedure: (§2) For each treatment, 10 oocytes were transferred to a 5 mL polystyrene round bottom tube (Falcon) and washed twice with 3.5 mL of ND96 buffer, with the residual buffer removed by pipette. […] The assay was terminated by removing the reaction buffer with a pipette and washing the oocytes twice with 3.5 mL of ice-cold ND96 buffer. Each oocyte was transferred to a separate well of a white 96-well plate (NUNC or PerkinElmer), incubated overnight at room temperature in 30 μL of 10% SDS, and mixed on an orbital shaker the following day for approximately 5 min. The lysed oocyte was then combined with 150 μL of MicroScint-40 microscintillant (PerkinElmer), the plate covered with a TopSeal-A (PerkinElmer), and the radioactivity measured with a PerkinElmer MicroBeta^2 microplate liquid scintillation analyzer.

The test system of test [7] is noninjected oocytes. Briefly: Trans-stimulation of [3H]CQ uptake by microinjected compound in oocytes. The format is cell-based, Xenopus laevis. As to conditions: microinjected amantadine. The protocol: A subset of experiments measured the ability of unlabeled amantadine to trans-stimulate the uptake of [^3H]CQ into the oocyte. Immediately prior to the commencement of the experiment, the oocytes (days 3–4 post-injection of the cRNA) were microinjected with either amantadine (estimated intracellular concentrations of 1, 2.5, 5, 10, 15, or 20 mM) or a control treatment (buffer, spermine, or histidine; the estimated intracellular concentrations of spermine and histidine were 5 and 10 mM). The volume injected was 50 nL and the intracellular concentrations were calculated using previous estimates of the volume of stage V-VI oocytes (~400 nL [77]). The resealed oocytes were then incubated at 16–18°C in OR^2+ buffer for approximately 5 min and the influx of [^3H]CQ was measured as described above. […] The Michaelis-Menten equation was then fitted to the data to derive the kinetic parameters for the trans-stimulation of [^3H]CQ transport by amantadine.

Test [8] has as its target 76I,369F-PfCRT^K1 (Plasmodium falciparum, UniProt Q9N623, A220S/K76I/M74I/N326S/N75E/Q271E/R371I/V369F). Briefly: [3H]drug transport into Xenopus oocytes expressing PfCRT. It counts as cell-based. The protocol: as §2
Test [9] concerns C6^7G8 (PfCRT^7G8). Briefly: P. falciparum H+ efflux assay (DV alkalinization rate). It counts as cell-based, Plasmodium falciparum. The protocol: (§3) Saponin-isolated trophozoite-stage parasites containing the membrane-impermeant pH-sensitive fluorescent indicator fluorescein-dextran (10,000 MW; Life Technologies) in their DVs were prepared as outlined elsewhere. The isolated parasites were washed and suspended in a saline solution (125 mM NaCl, 5 mM KCl, 1 mM MgCl2, 20 mM glucose, 25 mM HEPES; pH 7.1) at a density of 1–3 × 10^7 cells/mL. The fluorometry experiments were performed as described previously. The pH of the DV was monitored at 37°C using a PerkinElmer Life Sciences LS50B fluorometer with a dual excitation Fast Filter accessory (excitation 490 and 450 nm; emission 520 nm). The experiments entailed monitoring the alkalinization of the DV upon addition of the V-type H^+-ATPase inhibitor concanamycin A (100 nM; Sigma-Aldrich), in the presence or absence of the drugs of interest. Half-times for DV alkalinization (t1/2) were calculated as outlined elsewhere. In all cases, five independent experiments were performed on different days.

Test [10] deals with C4^Dd2 (PfCRT^Dd2). Described as above. It counts as cell-based, Plasmodium falciparum. The protocol:
as §3

In test [11] the test system is C2^GC03 (PfCRT^3D7). Described as above. It counts as cell-based, Plasmodium falciparum. The protocol: as §3
Test [12] concerns the target 76I-PfCRT^K1 (Plasmodium falciparum, UniProt Q9N623, A220S/K76I/M74I/N326S/N75E/Q271E/R371I). It counts as cell-based. The procedure: as §2
For test [13], the system named is PfCRT^K1. Briefly: [3H]drug transport into Xenopus oocytes expressing PfCRT. The format is cell-based, Plasmodium falciparum. The protocol: as §2
Test [14] has as its system P. falciparum line 106/1^76I,352K. As to conditions: 106/1^76I,352K (76I,352K-PfCRT^K1); IC50 in line divided by IC50 in drug-sensitive reference strain; cited from earlier work.
Test [15] has as its system P. falciparum line K1AM. Particulars: K1AM (163R,356V-PfCRT^K1); IC50 in line divided by IC50 in drug-sensitive reference strain; cited from earlier work.

Sequence of 76I-PfCRT^K1 (Q9N623 whole entry A220S/K76I/M74I/N326S/N75E/Q271E/R371I): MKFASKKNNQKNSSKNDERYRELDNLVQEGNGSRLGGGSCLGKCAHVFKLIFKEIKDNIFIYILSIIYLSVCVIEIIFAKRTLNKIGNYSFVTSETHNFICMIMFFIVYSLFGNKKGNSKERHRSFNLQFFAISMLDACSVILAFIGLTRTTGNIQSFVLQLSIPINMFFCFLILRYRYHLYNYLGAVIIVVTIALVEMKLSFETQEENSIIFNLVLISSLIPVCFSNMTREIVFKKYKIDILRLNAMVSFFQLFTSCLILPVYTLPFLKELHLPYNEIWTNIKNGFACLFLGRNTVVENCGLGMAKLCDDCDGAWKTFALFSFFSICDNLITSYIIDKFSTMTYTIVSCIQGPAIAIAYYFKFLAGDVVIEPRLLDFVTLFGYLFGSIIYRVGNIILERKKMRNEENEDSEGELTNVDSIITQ
Sequence of 76I,369F-PfCRT^K1 (Q9N623 whole entry A220S/K76I/M74I/N326S/N75E/Q271E/R371I/V369F): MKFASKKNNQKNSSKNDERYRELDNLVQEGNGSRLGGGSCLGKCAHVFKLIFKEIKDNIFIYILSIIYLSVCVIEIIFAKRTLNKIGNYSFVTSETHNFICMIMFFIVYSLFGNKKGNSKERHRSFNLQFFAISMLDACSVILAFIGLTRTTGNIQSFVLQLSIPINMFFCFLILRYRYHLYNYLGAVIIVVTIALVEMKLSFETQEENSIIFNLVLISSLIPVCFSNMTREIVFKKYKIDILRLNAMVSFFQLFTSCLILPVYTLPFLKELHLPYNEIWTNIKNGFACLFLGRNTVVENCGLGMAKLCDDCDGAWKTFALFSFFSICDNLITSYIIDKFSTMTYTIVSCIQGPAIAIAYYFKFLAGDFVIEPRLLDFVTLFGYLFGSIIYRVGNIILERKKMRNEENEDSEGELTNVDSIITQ

In the case of `NC12CC3CC(CC(C3)C1)C2` [amantadine], the IC50 stood at 8.4 ± 0.06 µM in test [1]; 335 ± 9.5 µM in [2]; 11 ± 0.1 µM in test [3]; 344 ± 8.9 µM in test [4]; 43 ± 2.9 µM in test [5]. Further, the “rate of amantadine uptake” value in [6] ([3H]amantadine 0.146 μM, pH 5.0, 50 μM unlabeled amantadine) was determined as 5.4 ± 0.9 nmol per oocyte/h; in [13] (PfCRT^K1-expressing oocytes, [3H]amantadine 0.146 μM, pH 5.0, 50 μM unlabeled amantadine), 12 ± 2.8 nmol per oocyte/h. The “effect on accumulation of [3H]CQ (trans-stimulation)” value in test [7] is “did not affect”. For the same compound, the amantadine transport activity entry in test [8] (oocytes expressing 76I,369F-PfCRT^K1, pH 5.0, 50 μM unlabeled amantadine) is “very low (but statistically significant) level”. The “substrate of PfCRT in situ (rate of DV alkalinization)” value is on record as “is a substrate” in test [9] (C6^7G8, PfCRT^7G8, amantadine 10 μM); “is a substrate” in test [10] (C4^Dd2, PfCRT^Dd2, amantadine 10 μM); “not of wild-type PfCRT” in [11] (C2^GC03, wild-type PfCRT (PfCRT^3D7), amantadine 10 μM). Moreover, the “[3H]amantadine accumulation relative to noninjected oocytes” value in test [12] (oocytes expressing 76I-PfCRT^K1, pH 5.0, 50 μM unlabeled amantadine) is “marked increase”; in test [13] (oocytes expressing PfCRT^K1, pH 5.0, 50 μM unlabeled amantadine), “marked increase”.

For `CCN(CC)CCCC(C)Nc1ccnc2cc(Cl)ccc12` (stereo not shown) [CQ, chloroquine], the IC50 was found to be 0.149 ± 0.0046 µM in [1]; 0.027 ± 0.0016 µM in test [2]; 0.151 ± 0.0048 µM in test [3]; 0.025 ± 0.0011 µM in test [4]; 0.087 ± 0.0021 µM in test [5]. The “Drug susceptibility (In vitro resistance index)” value was 0.91 ± 0.09 in test [14] and 0.95 in [15]. Further, the “rate of CQ uptake” value was determined as 1.41 ± 0.02 pmol per oocyte/h in [6] (pH 5.5, 15 μM unlabeled CQ (S5 Fig)); 0.98 ± 0.13 pmol per oocyte/h in [6] (pH 6.0, 15 μM unlabeled CQ (Fig 2A)); 6.75 ± 0.94 pmol per oocyte/h in [13] (oocytes expressing PfCRT^K1, [3H]CQ […], pH 6.0, 15 μM unlabeled CQ (Fig 2A)). Also, the “Apparent Vmax” value was 13.8 pmol per oocyte/h and 13.8 ± 1.3^c (5) pmol per oocyte/h in test [8] (transport via 76I,369F-PfCRT^K1 in oocytes, CQ pH 6.0); 29.3 pmol per oocyte/h and 29.3 ± 7.2^c,f (5) pmol per oocyte/h in [12] (transport via 76I-PfCRT^K1 in oocytes, CQ pH 6.0, quinine and quinidine pH 5.0); 72 ± 3 (9) pmol per oocyte/h in test [13] (transport via PfCRT^K1 in oocytes, CQ pH 6.0, quinine and quinidine pH 5.0). In addition, the “effect on rate of DV alkalinization” value in [9] (C6^7G8 (CQ-resistant), CQ […], concanamycin A 100 nM) was “increased”; in [10] (C4^Dd2 (CQ-resistant), CQ […], concanamycin A 100 nM), “increased”; in [11] (C2^GC03 (CQ-sensitive), CQ […], concanamycin A 100 nM) it was “without effect”. For the same compound, the Km in test [13] (transport via PfCRT^K1 in oocytes, CQ pH 6.0, quinine and quinidine pH 5.0, 76K-PfCRT^K1 control subtracted, read-out: Apparent Km) was 282 ± 5 µM.

By IC50 is commonly meant the point on the concentration scale where inhibition reaches its midpoint. Lower therefore signals greater potency. In general, Km refers to the substrate concentration at which the rate is half of its maximum.
